The source of these data is patent US20220024921A1, “1,3,4-OXADIAZOLONE COMPOUND AND PHARMACEUTICAL” (NIPPON SHINYAKU CO., LTD., priority 2018, published 2022).

In assay [1] the target is T1, PIM1 serine/threonine kinase (Homo sapiens, UniProt P11309).
T1 construct: purchased Carna Bioscience, Inc
Nature of the assay: PIM1 serine/threonine kinase inhibitory effect. The format is biochemical. The following applies: PIM1 serine/threonine kinase activity; ATP 40 μM; 30° C., 30 minutes. The essentials: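 Recombinant PIM1 (0.15 μg/ml final) with 0.5 μM biotinylated substrate and 40 μM ATP in pH 7.0 HEPES/MgCl2 buffer, 30 min at 30° C. Compound range was 0.01–10000 nM final, n=2. HTRF detection with streptavidin-XL665 and anti-phospho antibody-cryptate, 1 h; IC50 from non-linear regression of the 665/620 ratio.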

In assay [2] the target is PIM1 transgenic cells (Ba/F3) (Homo sapiens, UniProt P11309). Kind of assay: Proliferation inhibitory effect on PIM1 transgenic cells. The format is cell-based, mouse. The following applies: proliferation inhibition, 72 hours, Cell Counting Kit-8, read-out: PIM1 IC50. The essentials: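 Mouse Ba/F3 pro-B cells were retrovirally transduced with human PIM1 so that their proliferation depends on PIM1. Cells were treated with compound at 1–10000 nM final for 72 h, then read by CCK-8 (OD450−OD650). Inhibition was set against DMSO (0%) and no-cell blank (100%), and IC50 was obtained by two-parameter logistic regression.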
Background: Tetrazolium assays rely on reduction of a dye to a coloured formazan, in cell work by metabolically active cells.

Where a name gives a salt, the structure may show the parent alone.

Sequence of PIM1 transgenic cells (Ba/F3) (P11309 whole entry, stated change not applied): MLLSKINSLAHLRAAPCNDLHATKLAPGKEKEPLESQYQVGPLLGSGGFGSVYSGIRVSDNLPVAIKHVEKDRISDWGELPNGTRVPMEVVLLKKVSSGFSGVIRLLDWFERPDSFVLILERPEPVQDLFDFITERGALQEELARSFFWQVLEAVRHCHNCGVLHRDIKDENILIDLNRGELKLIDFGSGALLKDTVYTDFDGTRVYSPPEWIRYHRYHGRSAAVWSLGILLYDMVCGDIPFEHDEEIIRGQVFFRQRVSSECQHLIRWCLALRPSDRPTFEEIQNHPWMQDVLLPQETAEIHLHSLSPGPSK
T1 sequence (P11309 whole entry): as the sequence (P11309 whole entry, stated change not applied) above

As a reminder, the IC50 is the concentration that gives 50% inhibition. As to `C[C@H]1CN([C@@H](C)C2CCNCC2)c2cc(-c3n[nH]c(=O)o3)cc(F)c2O1` [Example 251, 5-{(2S)-8-fluoro-2-methyl-4-[(1S)-1-(piperidin-4-yl)ethyl]-3,4-dihydro-2H-1,4-benzoxazin-6-yl}-1,3,4-oxadiazol-2(3H)-one], half-maximal inhibition in assay [1] (IC50) was put at 12 nM. Further, in assay [2], the GI50 came out at 260 nM.
The corresponding values for `CN[C@H]1CC[C@H]([C@H](C)Nc2cc(-c3n[nH]c(=O)o3)ccc2C(F)(F)F)CC1` [Example 189, 5-[3-({(1S)-1-[(1r,4S)-4-(methylamino)cyclohexyl]ethyl}amino)-4-(trifluoromethyl)phenyl]-1,3,4-oxadiazol-2(3H)-one hydrochloride] are 2.2 nM and 44 nM.
For the compound `C[C@H](Nc1cc(-c2n[nH]c(=O)o2)cc(C(F)(F)F)c1Cl)[C@H]1C[C@@H](N)C1` [Example 183, 5-[3-({(1S)-1-[(1s,3R)-3-aminocyclobutyl]ethyl}amino)-4-chloro-5-(trifluoromethyl)phenyl]-1,3,4-oxadiazol-2(3H)-one hydrochloride], half-maximal inhibition in assay [1] (IC50) was put at 1.8 nM. Besides, in assay [2], the GI50 came to 45 nM.
On to `CN[C@H]1C[C@@H]([C@H](C)Nc2cc(-c3n[nH]c(=O)o3)ccc2C(F)(F)F)C1` [Example 192, 5-[3-({(1S)-1-[(1s,3R)-3-(methylamino)cyclobutyl]ethyl}amino)-4-(trifluoromethyl)phenyl]-1,3,4-oxadiazol-2(3H)-one hydrochloride], for which, in assay [1], the half-maximal inhibitory concentration (IC50) came to 2.6 nM. The GI50 in assay [2] is 47 nM.
For `NCC1CCN(c2cc(-c3n[nH]c(=O)o3)ccc2Cl)CC1` [Example 6, 5-{3-[4-(aminomethyl)piperidin-1-yl]-4-chlorophenyl}-1,3,4-oxadiazol-2(3H)-one], the IC50 in assay [1] was determined as 59 nM. Also, in assay [2], the GI50 was found to be 3600 nM.
In assay [1], `NCCCCNc1cc(-c2n[nH]c(=O)o2)ccc1C(F)(F)F` [Example 1, 5-{3-[(4-aminobutyl)amino]-4-(trifluoromethyl)phenyl}-1,3,4-oxadiazol-2(3H)-one hydrochloride] returned an IC50 of 15 nM. In addition, the GI50 in assay [2] is 1900 nM.
The corresponding values for `C[C@H](Nc1cc(-c2n[nH]c(=O)o2)ccc1Cl)[C@H]1CC[C@H](N)CC1` [Example 148, 5-[3-({(1S)-1-[(1r,4S)-4-aminocyclohexyl]ethyl}amino)-4-chlorophenyl]-1,3,4-oxadiazol-2(3H)-one hydrochloride] are 3.7 nM and 45 nM.
The corresponding values for `C[C@H](Nc1cc(-c2n[nH]c(=O)o2)ccc1Cl)[C@H]1C[C@@H](N)C1(C)C` [Example 168, 5-[3-({(1S)-1-[(1S,3R)-3-amino-2,2-dimethylcyclobutyl]ethyl}amino)-4-chlorophenyl]-1,3,4-oxadiazol-2(3H)-one] are 10 nM and 110 nM.
Compound `O=c1[nH]nc(-c2ccc(C(F)(F)F)c(CCC3CCNCC3)c2)o1` [Example 26, 5-{3-[2-(piperidin-4-yl)ethyl]-4-(trifluoromethyl)phenyl}-1,3,4-oxadiazol-2(3H)-one hydrochloride] returned an IC50 in assay [1] of 12 nM. Further, the GI50 in assay [2] was determined as 910 nM.
The matching figures for `N[C@H]1CC[C@H](CNc2cc(-c3n[nH]c(=O)o3)cc(F)c2Cl)CC1` [Example 86, 5-[3-({[(1r,4r)-4-aminocyclohexyl]methyl}amino)-4-chloro-5-fluorophenyl]-1,3,4-oxadiazol-2(3H)-one hydrochloride]: 0.6 nM and 61 nM.
The matching figures for `N[C@H]1CC[C@@H](CNc2cc(-c3n[nH]c(=O)o3)ccc2C(F)(F)F)CC1` [Example 74, 5-[3-({[(1s,4s)-4-aminocyclohexyl]methyl}amino)-4-(trifluoromethyl)phenyl]-1,3,4-oxadiazol-2(3H)-one hydrochloride]: 2.2 nM and 150 nM.
The matching figures for `C[C@H](Nc1cc(-c2n[nH]c(=O)o2)cc(F)c1Cl)C1CCNCC1` [Example 76, 5-(4-chloro-3-fluoro-5-{[(1S)-1-(piperidin-4-yl)ethyl]amino}phenyl)-1,3,4-oxadiazol-2(3H)-one hydrochloride]: 1.9 nM and 31 nM.
In assay [1], `C[C@H](Nc1cc(-c2n[nH]c(=O)o2)ccc1C(F)(F)F)[C@@H]1CC[C@@H](N)CO1` [Example 188, 5-[3-({(S)-1-[(2S,5R)-5-aminotetrahydro-2H-pyran-2-yl]ethyl}amino)-4-(trifluoromethyl)phenyl]-1,3,4-oxadiazol-2(3H)-one] gave an IC50 of 2.9 nM. Also, the GI50 in assay [2] is 56 nM.
The corresponding values for `CC(C)Oc1c(Cl)cc(-c2n[nH]c(=O)o2)cc1N[C@@H](C)C1CCNCC1` [Example 103, 5-(3-chloro-5-{[(1S)-1-(piperidin-4-yl)ethyl]amino}-4-[(propan-2-yl)oxy]phenyl)-1,3,4-oxadiazol-2(3H)-one hydrochloride] are 5 nM and 120 nM.
`O=c1[nH]nc(-c2ccc(Br)c(OCC3CCNCC3)c2)o1` [Example 235, 5-{4-bromo-3-[(piperidin-4-yl)methoxy]phenyl}-1,3,4-oxadiazol-2(3H)-one] came in with an IC50 in assay [1] of 7.7 nM. In addition, in assay [2], the GI50 came to 650 nM.
`CC1(CNc2cc(-c3n[nH]c(=O)o3)ccc2C(F)(F)F)CCNCC1` [Example 57, 5-[3-{[(4-methylpiperidin-4-yl)methyl]amino}-4-(trifluoromethyl)phenyl]-1,3,4-oxadiazol-2(3H)-one hydrochloride] displayed an IC50 in assay [1] of 6 nM. In addition, in assay [2], the GI50 was 370 nM.
Turning to `C[C@H](Nc1cc(-c2n[nH]c(=O)o2)ccc1Br)C1CCNCC1` [Example 78, 5-(4-bromo-3-{[(1S)-1-(piperidin-4-yl)ethyl]amino}phenyl)-1,3,4-oxadiazol-2(3H)-one dihydrochloride], in assay [1], it took 3.3 nM to reach half-maximal inhibition (IC50). Besides, the GI50 in assay [2] came out at 170 nM.
The corresponding values for `CC(=O)N[C@H]1C[C@@H](CNc2cc(-c3n[nH]c(=O)o3)ccc2C(F)(F)F)C1(C)C` [Example 184, N-[(1S,3R)-2,2-dimethyl-3-{[5-(5-oxo-4,5-dihydro-1,3,4-oxadiazol-2-yl)-2-(trifluoromethyl)anilino]methyl}cyclobutyl]acetamide] are 65 nM and 880 nM.
Regarding `CC[C@H](Nc1cc(-c2n[nH]c(=O)o2)cc(F)c1Cl)C1CCNCC1` [Example 139, 5-(4-chloro-3-fluoro-5-{[(1S)-1-(piperidin-4-yl)propyl]amino}phenyl)-1,3,4-oxadiazol-2(3H)-one hydrochloride], in assay [1], the IC50 was found to be 2.6 nM. For the same compound, the GI50 in assay [2] amounted to 80 nM.
The matching figures for `N[C@H]1CC[C@H](Nc2cc(-c3n[nH]c(=O)o3)cc(F)c2C(F)(F)F)CC1` [Example 36, 5-[3-{[(1r,4r)-4-aminocyclohexyl]amino}-5-fluoro-4-(trifluoromethyl)phenyl]-1,3,4-oxadiazol-2(3H)-one hydrochloride]: 3.1 nM and 570 nM.
The corresponding values for `C[C@@H](Nc1cc(-c2n[nH]c(=O)o2)ccc1C(F)(F)F)[C@H]1CC[C@H](N)CC1` [Example 111, 5-[3-({(1R)-1-[(1r,4R)-4-aminocyclohexyl]ethyl}amino)-4-(trifluoromethyl)phenyl]-1,3,4-oxadiazol-2(3H)-one hydrochloride] are 6.4 nM and 140 nM.
`O=c1[nH]nc(-c2ccc(C(F)(F)F)c(NC[C@H]3CCNC[C@H]3F)c2)o1` [Example 126, 5-[3-({[(3S,4R)-3-fluoropiperidin-4-yl]methyl}amino)-4-(trifluoromethyl)phenyl]-1,3,4-oxadiazol-2(3H)-one hydrochloride] came in with an IC50 in assay [1] of 11 nM. Also, the GI50 in assay [2] was 600 nM.
The corresponding values for `C[C@@H]1CNCC[C@@H]1[C@H](C)Nc1cc(-c2n[nH]c(=O)o2)ccc1OC(F)(F)F` [Example 218, 5-[3-({(1S)-1-[(3S,4S)-3-methylpiperidin-4-yl]ethyl}amino)-4-(trifluoromethoxy)phenyl]-1,3,4-oxadiazol-2(3H)-one] are 2.9 nM and 27 nM.
The corresponding values for `C[C@H](Nc1cc(-c2n[nH]c(=O)o2)cc(F)c1C(F)(F)F)[C@H]1C[C@@H](N)C1(C)C` [Example 164, 5-[3-({(1S)-1-[(1S,3R)-3-amino-2,2-dimethylcyclobutyl]ethyl}amino)-5-fluoro-4-(trifluoromethyl)phenyl]-1,3,4-oxadiazol-2(3H)-one hydrochloride] are 1.7 nM and 25 nM.
For the compound `C[C@H](Nc1cc(-c2n[nH]c(=O)o2)c(Cl)cc1Cl)C1CCNCC1` [Example 96, 5-(2,4-dichloro-5-{[(1S)-1-(piperidin-4-yl)ethyl]amino}phenyl)-1,3,4-oxadiazol-2(3H)-one hydrochloride], in assay [1], the IC50 is 6.2 nM. The GI50 in assay [2] turned out to be 380 nM.
The matching figures for `C[C@H](Nc1cc(-c2n[nH]c(=O)o2)ccc1C(F)F)C1CCNCC1` [Example 90, 5-[4-(difluoromethyl)-3-{[(1S)-1-(piperidin-4-yl)ethyl]amino}phenyl]-1,3,4-oxadiazol-2(3H)-one]: 21 nM and 3800 nM.
Turning to `O=c1[nH]nc(-c2ccc(C(F)(F)F)c(N[C@@H](CF)C3CCNCC3)c2)o1` [Example 152, 5-[3-{[(1R)-2-fluoro-1-(piperidin-4-yl)ethyl]amino}-4-(trifluoromethyl)phenyl]-1,3,4-oxadiazol-2(3H)-one hydrochloride], the IC50 in assay [1] worked out at 3.3 nM. The GI50 in assay [2] worked out at 57 nM.
